Molecular target: T1, AMPK (A2/B2/G1) (Homo sapiens, UniProt P54646)
T1 construct: purchased Thermo Fisher Scientific (Life Technologies) SelectScreen
Assay: SelectScreen LanthaScreen
Assay type: binding
Details: read-out: % displacement
In short: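 NU5455 was profiled across the SelectScreen Broad panel of kinase activity and binding assays. Z'LYTE reactions such as CSF1R ran at apparent Km ATP, while the Adapta CAMK1 assay used ATP listed as 10. Values are given as percent.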

T1 sequence (P54646 whole entry): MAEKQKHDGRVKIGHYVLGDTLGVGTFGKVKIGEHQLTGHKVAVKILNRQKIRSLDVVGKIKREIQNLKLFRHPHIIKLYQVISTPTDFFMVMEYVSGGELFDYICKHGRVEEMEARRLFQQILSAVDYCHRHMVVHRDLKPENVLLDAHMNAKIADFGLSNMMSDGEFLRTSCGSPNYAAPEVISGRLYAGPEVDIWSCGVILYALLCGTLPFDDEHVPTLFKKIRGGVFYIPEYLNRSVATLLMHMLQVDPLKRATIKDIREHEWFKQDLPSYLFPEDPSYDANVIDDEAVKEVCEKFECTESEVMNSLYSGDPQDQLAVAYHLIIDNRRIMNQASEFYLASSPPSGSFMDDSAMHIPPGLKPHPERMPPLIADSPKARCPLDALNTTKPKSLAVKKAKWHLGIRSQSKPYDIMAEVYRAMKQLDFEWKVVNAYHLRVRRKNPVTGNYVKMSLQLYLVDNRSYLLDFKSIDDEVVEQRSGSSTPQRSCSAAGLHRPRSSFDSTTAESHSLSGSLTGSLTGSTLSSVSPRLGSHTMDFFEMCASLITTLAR
T1 sequence (O43741 whole entry partner): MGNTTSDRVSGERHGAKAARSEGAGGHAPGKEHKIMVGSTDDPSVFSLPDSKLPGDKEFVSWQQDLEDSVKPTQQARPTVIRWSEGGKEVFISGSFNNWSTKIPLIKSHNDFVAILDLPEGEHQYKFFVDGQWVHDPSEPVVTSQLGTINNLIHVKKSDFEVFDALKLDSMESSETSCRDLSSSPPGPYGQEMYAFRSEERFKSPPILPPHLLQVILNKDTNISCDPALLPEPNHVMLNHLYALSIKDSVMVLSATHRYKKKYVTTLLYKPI
T1 sequence (P54619 whole entry partner): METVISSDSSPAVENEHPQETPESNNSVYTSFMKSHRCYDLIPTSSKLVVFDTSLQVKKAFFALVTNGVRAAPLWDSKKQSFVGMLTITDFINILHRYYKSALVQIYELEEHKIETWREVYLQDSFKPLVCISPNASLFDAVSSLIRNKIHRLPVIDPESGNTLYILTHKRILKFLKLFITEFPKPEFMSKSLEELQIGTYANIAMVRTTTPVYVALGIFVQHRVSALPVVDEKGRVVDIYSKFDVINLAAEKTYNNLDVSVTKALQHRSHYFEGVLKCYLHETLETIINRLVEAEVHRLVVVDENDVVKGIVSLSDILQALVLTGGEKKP

With `CN(C(=O)CN1CCOCC1)c1ccc2sc3c(-c4cccc5c(=O)cc(N6CC7CCC(C6)O7)oc45)cccc3c2c1` [NU5455] the inhibition at 1 µM was -2.3%.

Reference: publication PMC6934184, “Selective DNA-PKcs inhibition extends the therapeutic index of localized radiotherapy and chemotherapy” (The Journal of Clinical Investigation, 2019)
